From paper PMC8571378, “Reversion analysis reveals the in vivo immunogenicity of a poorly MHC I-binding cancer neoepitope” (Nature Communications, 2021)

Assays:
splenic CD8 T cells = assay: ELIspot for interferon γ of splenic CD8 T cells from immunized mice; assay type: cell-based, BALB/c mice; settings: spleens seven days after second immunization; in vitro stimulation with immunizing 18-mer, 10 µM
Excerpt: BALB/c mice were immunized with 18-mer peptides containing Ccdc85c^MUT as well as Ccdc85c^WT as described in Methods. Spleens were harvested seven days after the second immunization and splenic CD8 T cells tested by ELIspot for interferon γ production in response to stimulation in vitro with the peptides used for immunization. […] Since the CD8 response detected in vitro was so modest, CD8 response as detected in vivo in the tumor microenvironment became our focus.
Supplementary Fig. 3. CD8 response to Ccdc85cMUT and Ccdc85cWT peptides. BALB/c mice were immunized twice at a weekly interval with 18-mer peptides containing Ccdc85cWT (left) or Ccdc85cMUT (right) as described in Methods. Spleens were harvested seven days after the second immunization and CD8 T cells stimulated in vitro with the peptides (10 µM concentration) used for immunization, as indicated. CD8 cells were analyzed for release of interferon g. Each dot represents a single mouse. The P values were calculated using two tailed t-test. Data are presented as mean values +/- SD. […]

[1] = system: tumor infiltrating CD45 + cells; assay: scRNA seq of tumor infiltrating CD45+ cells in immunized mice; assay type: in vivo, BALB/cJ mice
Excerpt: Tumor microenvironment (TME) of Ccdc85c^MUT-immunized mice was examined using single cell RNA sequencing (scRNA seq). BMDCs- immunized mice were used as controls. As a peptide control, mice immunized with a neoepitope Alms1^MUT were used. […] Mice were immunized with Ccdc85c^MUT, Alms1^MUT (peptide control) or BMDCs (control) as described in Methods, and were challenged with Meth A. RNA from CD45 + cells (estimated 15,925 cells for the four libraries after QC, with an average coverage of 32,663 reads per cell and median 1,339 genes per cell) was sequenced. Data from the four libraries were pooled and clustered based on the gene expression pattern of each as described in Methods. Annotation of the clusters was informed by both differentially expressed genes (DE Genes) and per cluster highly expressed genes identified by the TF-IDF analysis as described in Methods. Two major and distinct clusters were identified namely, myeloid and lymphoid. […] The proportion of lymphoid versus myeloid compartments in the Ccdc85c^MUT library was very different compared to the Alms1^MUT or control groups. The Ccdc85c^MUT library was mostly composed of lymphoid cells (62.68% lymphoid and 37.32% myeloid), while the control groups and mice immunized with Alms1^MUT were mostly composed of the myeloid compartment (~35% lymphoid and ~64% myeloid) (Fig. 2a, right panel). In order to study different cell types, lymphoid and myeloid clusters were re-clustered into 6 and 9 sub-clusters, respectively (Fig. 2a, bottom panel). The six identified lymphoid clusters were: CD4 T cells (CD4(1)), NKC(1), naive/early activated CD4 T cells (CD4(2), defined by a high expression of Sell, Il7r, Tcf7 and Ccr7 genes and low expression of Il2ra and lack of expression of effector and cytotoxicity genes), NKC(2) (less cytotoxic and active than NKC(1)), CD8 T cells (CD8) and proliferating CD4/CD8 T cells (Pr. CD4/CD8, defined by higher expression of Stmn1 and Mki67 genes and cell cycle gene expression analysis, described in Methods). The selected genes used as markers to annotate each lymphocyte cluster are listed in the summary heat map (Fig. 2b, right panel).
Fig. 2 Immune response in mice immunized with Ccdc85c^MUT and control neoepitope Alms1.1^MUT. a Tumors from mice immunized with Ccdc85c^MUT or Alms1.1^MUT as well as two groups of control mice immunized with BMDCs were harvested 10 days after tumor challenge. Tumor infiltrating CD45 + cells were sorted and analyzed by scRNA seq as described in Methods and Supplementary Fig 9b. Combined scRNA seq data from four libraries were analyzed. The t-SNE[34] plots of all intra-tumoral immune cells as well as myeloid and lymphoid compartments are shown in the top left panel. Myeloid and lymphoid composition for each library is shown on the right panel. The myeloid and lymphoid sub-clusters are shown in the bottom panels. See text for definition of each sub-cluster. b Heat maps of the indicated genes in the myeloid and lymphoid compartments are shown. The heat map genes were selected from the list of differentially expressed genes, genes with a high average TF-IDF score, and typical cell type markers. The average gene expression for each cluster was normalized by dividing it from the maximum value of each row (gene). c Summary heat map of selected genes associated with cytotoxicity for pooled activated T cells is shown. The heat map illustrates scaled (Z-scored) average gene expression by library. TEXT PRINTED IN THE PICTURE: (a) Alms1.1^MUT: Lymphoid cells: 34.28%; Myeloid cells: 65.72% | (a) Ccdc85c^MUT: Lymphoid cells: 62.68%; Myeloid cells: 37.32% DOUBTS OF THE COPYIST ABOUT THIS PICTURE: Panel a, bar chart: no measure is printed beside the percentages. I assigned them to 'Lymphoid cells' (blue) and 'Myeloid cells' (red) only by matching the colours of the plot next to it. / Panel a, bar chart: the control bars also carry percentages (Cont.1: 35.75% and 64.25%; Cont.2: 37.55% and 62.45%). […]

[2] = compared to control or Alms1^MUT libraries
[3] = tumors harvested 10 days after Meth A challenge

Question: Which results are given for “DPSSTYIRPFETKVKLLD [18-mer peptide with the mutant amino acid near the center]”?
Answer: CD8 response (interferon γ ELIspot) (splenic CD8 T cells): very modest but statistically significant CD8 response; contribution of library to myeloid cluster Mφ1 ([1]; Mφ1): ~ 20%; contribution of library to myeloid cluster Mφ2 ([1]; Mφ2, highest apart from Mφ1): 13.4%; contribution of library to myeloid cluster Mφ3 ([1]; Mφ3, lowest contribution): 1.6%; expression of cytotoxicity (Gzmb, Prf, Nkg7) and effector function (Ifng) genes in T cells [1, 2]: significantly higher; expression of genes involved in TCR engagement (Nr4a1 and Irf4) in T cells [1, 2]: significantly higher; expression of Eomes in T cells ([1]; compared to other libraries): significantly higher; contribution of library to pooled activated CD4 and CD8 T cells (clusters 1 and 5) ([1]; proliferating CD4/CD8 T excluded): 31%; Lymphoid cells, fraction of intra-tumoral immune cells [1, 3]: 62.68%; Myeloid cells, fraction of intra-tumoral immune cells [1, 3]: 37.32%; fraction of NK cells from the NKC(1) (more cytotoxic and active) cluster [1, 3]: ~ 80%
